Source: ChEMBL document CHEMBL1201862, “PubChem BioAssay data set” (2004)
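Cultured in 96-well plates, cells were exposed to test compound for 48 hours across five concentrations. GI50 = concentration required for 50% inhibition of growth.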 The source made the active and inactive calls. Cut-off read from the data, not from the text of the source: active = GI50 up to about 1.1 µM and inactive = higher.

Experiments:
Assay in all cases: NCI-60 cell line screen, 48 h
COLO 205 = system: COLO 205
HCC 2998 = system: HCC 2998
HOP-92 = system: HOP-92
IGROV-1 = system: IGROV-1
K562 = system: K562
MOLT-4 = system: MOLT-4
NCI-H23 = system: NCI-H23
NCI/ADR-RES = system: NCI/ADR-RES
OVCAR-5 = system: OVCAR-5
OVCAR-8 = system: OVCAR-8
RPMI-8226 = system: RPMI-8226
RXF 393 = system: RXF 393
SF-295 = system: SF-295
SF-539 = system: SF-539
SN12C = system: SN12C
SNB-75 = system: SNB-75
SR = system: SR
T47D = system: T47D
TK-10 = system: TK-10
A498 = system: A498

Row | Compound | GI50 (COLO 205) | GI50 (HCC 2998) | GI50 (HOP-92) | GI50 (IGROV-1) | GI50 (K562) | GI50 (MOLT-4) | GI50 (NCI-H23) | GI50 (NCI/ADR-RES) | GI50 (OVCAR-5) | GI50 (OVCAR-8) | GI50 (RPMI-8226) | GI50 (RXF 393) | GI50 (SF-295) | GI50 (SF-539) | GI50 (SN12C) | GI50 (SNB-75) | GI50 (SR) | GI50 (T47D) | GI50 (TK-10) | GI50 (A498)
1 | COc1cc(C)cc(C(=O)OCc2ccccc2)c1C1=C(Cl)C(=O)C(Cl)=CC1=O | > 6.14 µM (inactive) | > 10 µM (inactive) | 3.51 µM (inactive) | > 10 µM (inactive) | 2.27 µM (inactive) | 2.42 µM (inactive) | > 10 µM (inactive) | > 10 µM (inactive) | > 10 µM (inactive) | > 10 µM (inactive) | > 5.79 µM (inactive) | > 10 µM (inactive) | > 10 µM (inactive) | > 10 µM (inactive) | > 10 µM (inactive) | > 10 µM (inactive) | 4.13 µM (inactive) | 6.44 µM (inactive) | > 10 µM (inactive) | 
2 | COC(=O)[C@H]1C[C@H]1NC(=O)C(CC(=O)OCc1ccccc1)NC(=O)OCc1ccccc1 (some centres undefined) | 24.4 µM (inactive) | 88.3 µM (inactive) |  | 52.1 µM (inactive) | 59.7 µM (inactive) | 29.2 µM (inactive) | 41.8 µM (inactive) | 28.3 µM (inactive) | > 100 µM (inactive) | 40 µM (inactive) | 19.1 µM (inactive) |  | 50.7 µM (inactive) | 97.5 µM (inactive) | > 100 µM (inactive) | 36.2 µM (inactive) | 29.8 µM (inactive) | 11.9 µM (inactive) | 74.6 µM (inactive) | 61.8 µM (inactive)
3 | CCn1c(CCl)nc2c1C(=O)c1ccccc1C2=O |  | 1.56 µM (inactive) | 2.14 µM (inactive) | 1.7 µM (inactive) | 2.36 µM (inactive) | 0.356 µM (active) | 1.4 µM (inactive) | 2.48 µM (inactive) | 1.84 µM (inactive) | 1.58 µM (inactive) | 2.12 µM (inactive) | 1.85 µM (inactive) | 1.88 µM (inactive) | 2.23 µM (inactive) | 1.6 µM (inactive) | 1.58 µM (inactive) | 0.401 µM (active) | 1.95 µM (inactive) | 2.51 µM (inactive) | 
4 | COc1cc2c(cc1OC)C1C(O)C(OC)C(Br)C3(Br)CCN(C2)C13 (centres undefined) | > 100 µM (inactive) | 70.3 µM (inactive) | 15.1 µM (inactive) | > 100 µM (inactive) |  | 54 µM (inactive) | > 100 µM (inactive) | > 100 µM (inactive) | > 100 µM (inactive) | 41.3 µM (inactive) | > 100 µM (inactive) | 18.5 µM (inactive) | > 100 µM (inactive) | > 100 µM (inactive) | > 100 µM (inactive) | 78.9 µM (inactive) |  | 84.1 µM (inactive) | > 100 µM (inactive) | > 100 µM (inactive)
5 | O=c1[nH]c(NCc2cccnc2)nc2[nH]cnc12 | > 100 µM (inactive) | > 100 µM (inactive) | > 100 µM (inactive) | > 100 µM (inactive) | > 100 µM (inactive) | > 100 µM (inactive) | > 100 µM (inactive) | > 100 µM (inactive) | > 100 µM (inactive) | > 100 µM (inactive) | > 100 µM (inactive) | > 100 µM (inactive) | > 100 µM (inactive) | > 100 µM (inactive) | > 100 µM (inactive) | > 100 µM (inactive) |  | > 100 µM (inactive) | > 100 µM (inactive) | > 100 µM (inactive)
6 | O=C(NCCCCCCCCNC(=O)c1cccc2ccccc12)c1cccc2ccccc12 | 55.1 µM (inactive) | > 95.7 µM (inactive) | 4.34 µM (inactive) | 20.4 µM (inactive) | > 100 µM (inactive) | > 100 µM (inactive) | 23.6 µM (inactive) | 28.3 µM (inactive) | > 100 µM (inactive) | 9.91 µM (inactive) | > 100 µM (inactive) | 2.25 µM (inactive) | 12.4 µM (inactive) | 4.94 µM (inactive) | 18.8 µM (inactive) | 4.61 µM (inactive) | > 100 µM (inactive) |  | 12.1 µM (inactive) | 17.1 µM (inactive)
7 | CSc1c(C(=O)Nc2ccccc2)c(N)nn1-c1ccccc1 | > 100 µM (inactive) | > 100 µM (inactive) |  |  | > 100 µM (inactive) | > 100 µM (inactive) | > 100 µM (inactive) | > 100 µM (inactive) | > 100 µM (inactive) | > 100 µM (inactive) | > 100 µM (inactive) | 56.9 µM (inactive) |  | > 100 µM (inactive) | > 100 µM (inactive) | > 100 µM (inactive) | > 100 µM (inactive) | > 100 µM (inactive) | > 100 µM (inactive) | > 100 µM (inactive)
8 | O=[N+]([O-])c1ccc(-c2cn(-c3ccc(Cl)cc3)cn2)cc1 | > 100 µM (inactive) | > 100 µM (inactive) |  | 41.6 µM (inactive) | > 100 µM (inactive) | > 100 µM (inactive) | 20.4 µM (inactive) | 36.6 µM (inactive) | > 100 µM (inactive) | 36.6 µM (inactive) | 89.5 µM (inactive) |  | 18.7 µM (inactive) | 3.8 µM (inactive) | 41.3 µM (inactive) | 8.57 µM (inactive) | > 100 µM (inactive) | 44.2 µM (inactive) | 40.3 µM (inactive) | 40.7 µM (inactive)
9 | Cc1cccc2nc3n(c12)C(=O)c1ccccc1-3 | > 100 µM (inactive) | > 100 µM (inactive) | > 100 µM (inactive) | > 100 µM (inactive) | > 100 µM (inactive) | > 100 µM (inactive) | > 100 µM (inactive) | > 100 µM (inactive) | > 100 µM (inactive) | > 100 µM (inactive) | > 100 µM (inactive) | > 100 µM (inactive) | 49.9 µM (inactive) | > 100 µM (inactive) | > 100 µM (inactive) | > 100 µM (inactive) | > 100 µM (inactive) |  | > 100 µM (inactive) | 
10 | O=C(Cn1c2ccc(Br)cc2c2nc3ccccc3nc21)NNC(=O)NC1CCCCC1 | 86.9 µM (inactive) | > 100 µM (inactive) |  |  | 47.1 µM (inactive) | 25.2 µM (inactive) | 61.4 µM (inactive) |  | 52.8 µM (inactive) | 35.9 µM (inactive) | > 100 µM (inactive) | 78.2 µM (inactive) | 34.3 µM (inactive) | > 100 µM (inactive) | 52.8 µM (inactive) | 23.2 µM (inactive) | 31 µM (inactive) | 33 µM (inactive) | 42.8 µM (inactive) | > 100 µM (inactive)
11 | CCOc1cc2c(=O)oc3c(OC)ccc4ccc(c1OC)c2c43 | > 100 µM (inactive) | 77.3 µM (inactive) | > 100 µM (inactive) | > 100 µM (inactive) | > 100 µM (inactive) | > 100 µM (inactive) | 73.5 µM (inactive) | 36.2 µM (inactive) | > 100 µM (inactive) | 25.2 µM (inactive) |  | 52.7 µM (inactive) | 96.8 µM (inactive) | > 100 µM (inactive) | > 100 µM (inactive) | 64.3 µM (inactive) |  | > 100 µM (inactive) | > 100 µM (inactive) | > 100 µM (inactive)
12 | COc1ccc2oc(=O)c3c(c2c1C)OC(C)(C)C=C3 | > 100 µM (inactive) | > 100 µM (inactive) |  | > 100 µM (inactive) | > 100 µM (inactive) | 44.1 µM (inactive) | > 100 µM (inactive) | > 100 µM (inactive) | > 100 µM (inactive) | > 100 µM (inactive) | > 100 µM (inactive) |  | > 100 µM (inactive) | > 100 µM (inactive) | > 100 µM (inactive) | > 100 µM (inactive) | > 100 µM (inactive) | > 100 µM (inactive) | > 100 µM (inactive) | > 100 µM (inactive)
13 | CC(=O)OC(C)(C)/C=C/C(=O)[C@](C)(O)[C@H]1[C@H](O)C[C@@]2(C)[C@@H]3CC=C4[C@@H](C=C(O)C(=O)C4(C)C)[C@]3(C)C(=O)C[C@]12C [CUCURBITACIN E] | 0.0191 µM (active) | 0.0501 µM (active) | 0.0302 µM (active) | 0.0366 µM (active) | 0.0681 µM (active) | 0.246 µM (active) | 0.055 µM (active) | 0.129 µM (active) | 0.186 µM (active) | 0.166 µM (active) | 0.041 µM (active) | 0.0177 µM (active) | 0.0348 µM (active) | 0.023 µM (active) | 0.0394 µM (active) | 0.0187 µM (active) |  | 0.217 µM (active) | 0.0479 µM (active) | 0.0247 µM (active)
14 | CN(C)CCCN1c2ccccc2CCc2cc([N+](=O)[O-])ccc21 | 16.4 µM (inactive) | 12.2 µM (inactive) |  | 15.6 µM (inactive) | 16.9 µM (inactive) | 15.8 µM (inactive) | 19 µM (inactive) | 17.2 µM (inactive) | 16.5 µM (inactive) | 15.7 µM (inactive) | 18 µM (inactive) | 12.6 µM (inactive) | 14.5 µM (inactive) | 15.1 µM (inactive) | 16.1 µM (inactive) | 12.9 µM (inactive) | 18.7 µM (inactive) | 17.1 µM (inactive) | 14.6 µM (inactive) | 12.8 µM (inactive)
15 | C=C[C@]1(C)CC(O)C2C(=C)C(=O)OC2[C@H]1C(=C)C=O (some centres undefined) | 7.23 µM (inactive) | 14.1 µM (inactive) | 2.61 µM (inactive) | 8.87 µM (inactive) | 2.52 µM (inactive) | 2 µM (inactive) | 2.68 µM (inactive) |  | 10.8 µM (inactive) | 2.16 µM (inactive) | 0.859 µM (active) | 2.07 µM (inactive) | 10.6 µM (inactive) | 3.29 µM (inactive) | 2.37 µM (inactive) | 18.6 µM (inactive) | 1.91 µM (inactive) | 3.15 µM (inactive) | 3.94 µM (inactive) | 4.42 µM (inactive)
